Experimental data reported in US7745619B2, “Vinca derivatives” (priority 2003, dated 2010).

Columns and labels:
[1] = test system: OVCAR-3; assay: NCI 60-cell line growth inhibition assay: OVCAR-3; format: cell-based; details: Homo sapiens
[2] = test system: SK-MEL-2; assay: NCI 60-cell line growth inhibition assay: SK-MEL-2; format: cell-based; details: Homo sapiens
[3] = test system: OVCAR-4; assay: NCI 60-cell line growth inhibition assay: OVCAR-4; format: cell-based; details: Homo sapiens
[4] = test system: HCC-2998; assay: NCI 60-cell line growth inhibition assay: HCC-2998; format: cell-based; details: Homo sapiens, HCC 2998
[5] = test system: HCT-116; assay: NCI 60-cell line growth inhibition assay: HCT-116; format: cell-based; details: Homo sapiens
[6] = test system: K-562; assay: NCI 60-cell line growth inhibition assay: K-562; format: cell-based; details: Homo sapiens, K562
[7] = test system: NCI-H226; format: cell-based; details: Homo sapiens, Non-Small Cell Lung
From the text: (§1) The following data in Table 4 summarize the growth inhibition properties of several compounds of the present invention against 60-human transformed cell lines.

[8] = test system: SF-295; assay: NCI 60-cell line growth inhibition assay: SF-295; format: cell-based; details: Homo sapiens
[9] = test system: HL-60(TB); assay: cells; format: cell-based; details: Homo sapiens, Leukemia
[10] = test system: SR; assay: NCI 60-cell line growth inhibition assay: SR; format: cell-based; details: Homo sapiens, Leukemia
From the text: as §1

[11] = test system: RPMI-8226; assay: NCI 60-cell line growth inhibition assay: RPMI-8226; format: cell-based, human
From the text: as §1

[12] = test system: PC-3; assay: NCI 60-cell line growth inhibition assay: PC-3; format: cell-based; details: Homo sapiens
[13] = test system: SW-620; assay: NCI 60-cell line growth inhibition assay: SW-620; format: cell-based; details: Homo sapiens
[14] = test system: U251; assay: NCI 60-cell line growth inhibition assay: U251; format: cell-based; details: Homo sapiens, U-251
[15] = test system: RXF 393; assay: NCI 60-cell line growth inhibition assay: RXF 393; format: cell-based; details: Homo sapiens
[16] = test system: SF-268; assay: NCI 60-cell line growth inhibition assay: SF-268; format: cell-based; details: Homo sapiens, CNS
From the text: as §1

[17] = test system: BT-549; assay: NCI 60-cell line growth inhibition assay: BT-549; format: cell-based; details: Homo sapiens
[18] = test system: T-47D; assay: NCI 60-cell line growth inhibition assay: T-47D; format: cell-based; details: Homo sapiens, T47D, Breast
From the text: as §1

[19] = test system: SK-MEL-28; assay: NCI 60-cell line growth inhibition assay: SK-MEL-28; format: cell-based; details: Homo sapiens, Melanoma
From the text: as §1

[20] = test system: SNB-75; assay: NCI 60-cell line growth inhibition assay: SNB-75; format: cell-based; details: Homo sapiens
[21] = test system: NCI-H23; format: cell-based; details: Homo sapiens
[22] = test system: MALME-3M; assay: NCI 60-cell line growth inhibition assay: MALME-3M; format: cell-based; details: Homo sapiens, Malme-3M
[23] = test system: UO-31; assay: NCI 60-cell line growth inhibition assay: UO-31; format: cell-based; details: Homo sapiens
[24] = test system: OVCAR-5; assay: NCI 60-cell line growth inhibition assay: OVCAR-5; format: cell-based; details: Homo sapiens
[25] = Homo sapiens, Leukemia, RPMI-8226

| Compound | GI50 [1] [nM] | GI50 [2] [nM] | GI50 [3] [nM] | GI50 [4] [nM] | GI50 [5] [nM] | GI50 [6] [nM] | GI50 [7] [nM] | GI50 [8] [nM] | GI50 [9] [nM] | GI50 [11, 25] [nM] | GI50 [12] [nM] | GI50 [13] [nM] | GI50 [14] [nM] | GI50 [15] [nM] | GI50 [16] [nM] | GI50 [18] [nM] | GI50 [19] [nM] | GI50 [20] [nM] | GI50 [21] [nM] | GI50 [22] [nM] | other results |
| --- | --- | --- | --- | --- | --- | --- | --- | --- | --- | --- | --- | --- | --- | --- | --- | --- | --- | --- | --- | --- | --- |
| CCCC(=O)/C=C/c1ccc2[nH]c3c(c2c1)CCN1C[C@H](C[C@@](O)(CC)C1)C[C@]3(C(=O)OC)c1cc2c(cc1OC)N(C)[C@H]1[C@@](O)(C(=O)OC)[C@H](OC(C)=O)[C@]3(CC)C=CCN4CC[C@]21[C@@H]43 [Example 29, 12′-(3-oxohex-1-enyl)vinblastine] | 59.7 | 9770 | 21.1 | < 10 | < 10 | < 10 | < 10 | 568 | 244 | 14.1 | 44.2 | 1300 | < 10 | 268 | 901 |  |  |  |  |  | GI50 [10]: 396 nM |
| CC[C@]1(O)C[C@H]2CN(CCc3c([nH]c4ccc(C#Cc5ccccc5)cc34)[C@@](C(=O)OC)(c3cc4c(cc3OC)N(C)[C@H]3[C@@](O)(C(=O)OC)[C@H](OC(C)=O)[C@]5(CC)C=CCN6CC[C@]43[C@@H]65)C2)C1 [Example 19, 12′-(2-phenylethynyl) vinblastine] | 207 | 2290 | 1550 | 182 | 300 |  |  | 293 |  | 252 | 280 | 1770 | 9970 | 619 | 731 | 4750 | 1270 | 530 | 541 | 254 | GI50 [17]: 1890 nM; GI50 [23]: 2200 nM; GI50 [24]: 1780 nM |
| CCC1=C[C@H]2CN(CCc3c([nH]c4ccc(Br)cc34)[C@@](C(=O)OC)(c3cc4c(cc3OC)N(C)[C@H]3[C@@](O)(C(=O)OC)[C@H](OC(C)=O)[C@]5(CC)C=CCN6CC[C@]43[C@@H]65)C2)C1 [Example 97, 12′-bromoanhydro vinblastine] | < 10 |  |  | < 10 | < 10 | < 10 | < 10 | < 10 | < 10 | < 10 | < 10 | < 10 | < 10 |  | < 10 | 19400 | 3310 | 12200 | 325 | 1420 | GI50 ([11]; Renal, RPMI-8226 (last line of Table 4, repeats the Leukemia line)): < 10 nM; GI50 [24]: 12.4 nM |
